In the METLIN SMRT retention time set (Domingo-Almenara et al. 2019):

Experiment: gradient 5% acetonitrile 3 min, to 50% in 2 min, to 85% in 15 min, held 3 min, 100 µL/min
Details: column: Zorbax Extend-C18 2.1 x 50 mm; eluents: water / acetonitrile, 0.1% formic acid
How it was run: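 Each retention time is based on an adduct peak selected computationally and verified by manual inspection. Measurements used HPLC–quadrupole time-of-flight mass spectrometry in positive and negative ionization mode on mixtures of ~100 pure standards. Chromatography ran on a Zorbax Extend-C18 column (2.1 × 50 mm, 1.8 μm) at 100 μL/min with water and acetonitrile, each containing 0.1% formic acid, and dead and dwell volumes of 40 μL and 900 μL.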

**Q.** With `CN(Cc1ccco1)c1nc(-c2ccc(Cl)cc2)nc2ccccc12` as the compound, how does the RP-LC retention time read?
**A.** The RP-LC retention time was 858 s.

**Q.** With `CCN1C(=O)c2cccnc2Sc2cc(CNC(=O)c3cccs3)ccc21` as the compound, how does the RP-LC retention time read?
**A.** The RP-LC retention time was 737 s.

**Q.** Which RP-LC retention time does the source give for `C[C@@H]1O[C@@H](O[C@H]2C(Oc3cc(O)c4c(=O)c(O)c(-c5ccc(O)cc5)oc4c3)O[C@H](CO)[C@@H](O)[C@@H]2O)[C@H](O)[C@H](O)[C@H]1O` (some centres undefined) here?
**A.** Its RP-LC retention time is 677 s.

**Q.** For `CS(=O)(=O)N1CCC(CC(=O)NC2CCCCC2)C1` (centres undefined), which RP-LC retention time is on record?
**A.** Its RP-LC retention time is 668 s.

**Q.** For `O=C(Nc1ccc(N2CCN(Cc3ccc(F)cc3)C2=O)nc1)c1ccco1`, which RP-LC retention time is on record?
**A.** The RP-LC retention time was 749 s.

**Q.** Which RP-LC retention time does the source give for `Cc1cccc(NC(=O)Cn2cnc3nc(N4CCC(C(=O)NC5CC5)CC4)sc3c2=O)c1` here?
**A.** Its RP-LC retention time is 658 s.

**Q.** Which RP-LC retention time does the source give for `CC(C)NC(=O)N(CC(=O)N1CCc2sccc2C1COc1ccccc1)C(C)C` (centres undefined) here?
**A.** The RP-LC retention time was 892 s.

**Q.** With `COc1ccc(S(=O)(=O)N2CCCC(C(=O)Nc3cccc(SC)c3)C2)cc1C` (centres undefined) as the compound, how does the RP-LC retention time read?
**A.** Its RP-LC retention time is 1030 s.

**Q.** Which RP-LC retention time does the source give for `O=C(NCc1nc(-c2cccc(-c3csc(C4CC4)n3)c2)no1)c1ccccc1` here?
**A.** The RP-LC retention time was 1030 s.

**Q.** Which RP-LC retention time does the source give for `O=C(C(=O)N1CCOCC1)c1c(-c2ccccc2)cc2ccccn12` here?
**A.** Its RP-LC retention time is 798 s.

**Q.** For `Cn1nccc1-c1cccc(-c2noc(-c3cc(F)ccc3Cl)n2)c1`, which RP-LC retention time is on record?
**A.** The RP-LC retention time was 1190 s.

**Q.** With `CC(CCNC(=O)Cn1c2ccccc2c2cnn(C)c(=O)c21)N1CCCC1` (centres undefined) as the compound, how does the RP-LC retention time read?
**A.** The RP-LC retention time was 595 s.

**Q.** With `CC1CCN(c2nnc(-n3cccc3CN3CCN(c4ccccn4)CC3)s2)CC1` as the compound, how does the RP-LC retention time read?
**A.** The RP-LC retention time was 658 s.

**Q.** Which RP-LC retention time does the source give for `COc1ccc(OCc2noc(CNC(=O)NCc3cccs3)n2)cc1` here?
**A.** Its RP-LC retention time is 737 s.

**Q.** For `COc1ccc(C2=Nc3ccccc3N(CC(=O)Nc3cc(OC)ccc3OC)C(=O)C2)cc1`, which RP-LC retention time is on record?
**A.** Its RP-LC retention time is 1020 s.

**Q.** For `Cc1ccc(CN2CCC[C@H]2c2nc(C3CCOCC3)n[nH]2)c(C)c1`, which RP-LC retention time is on record?
**A.** Its RP-LC retention time is 590 s.

**Q.** For `Cc1oc(-c2ccc(NC(=O)Cc3ccc(F)cc3)cc2)nc1Cn1cccn1`, which RP-LC retention time is on record?
**A.** The RP-LC retention time was 866 s.

**Q.** With `CC(C)CCn1c(CN(C)C(=O)c2ccco2)nc2ccccc21` as the compound, how does the RP-LC retention time read?
**A.** Its RP-LC retention time is 718 s.

**Q.** Which RP-LC retention time does the source give for `CC(C)C(=O)N1CCN(c2nc(CN3CCCCC3)cs2)CC1` here?
**A.** The RP-LC retention time was 603 s.

**Q.** With `Cc1ccc(S(=O)(=O)N2CCC3(CC2)OCCS3)s1` as the compound, how does the RP-LC retention time read?
**A.** Its RP-LC retention time is 906 s.

**Q.** With `O=C(NCc1ccc(Br)cc1)C1CCCN(c2nccnc2Sc2ccccc2)C1` (centres undefined) as the compound, how does the RP-LC retention time read?
**A.** The RP-LC retention time was 1110 s.

**Q.** With `COc1ccc(OC)c(CNC(=O)C2CCCN(c3ccc(=O)n(-c4ccc(F)cc4)n3)C2)c1` (centres undefined) as the compound, how does the RP-LC retention time read?
**A.** Its RP-LC retention time is 812 s.

**Q.** For `Cc1ccc(NC(=O)N2CCC(OC3CCN(S(C)(=O)=O)CC3)CC2)cc1C`, which RP-LC retention time is on record?
**A.** The RP-LC retention time was 803 s.

**Q.** With `Cc1ccc(N2CC(NC(=O)Nc3nc(C)cs3)CC2=O)cc1` (centres undefined) as the compound, how does the RP-LC retention time read?
**A.** The RP-LC retention time was 660 s.

**Q.** For `COc1ccccc1NC(=O)NC1CCN(c2ccc(C)c(C)c2)C1=O` (centres undefined), which RP-LC retention time is on record?
**A.** Its RP-LC retention time is 870 s.

**Q.** Which RP-LC retention time does the source give for `CN1CCC2(CC1)CN(C(=O)CCc1nc3ccccc3s1)Cc1ccccc1O2` here?
**A.** Its RP-LC retention time is 671 s.

**Q.** Which RP-LC retention time does the source give for `Cc1ccc(Cn2nc3c(S(=O)(=O)N4CCOCC4)cccn3c2=O)c(C)c1` here?
**A.** Its RP-LC retention time is 849 s.

**Q.** With `Cc1cc(C)nc(Nc2nc(C(=O)NCCn3nc(-c4ccco4)ccc3=O)cs2)n1` as the compound, how does the RP-LC retention time read?
**A.** The RP-LC retention time was 693 s.

**Q.** With `COc1ccc(-c2cnn3c(C)cc(C)nc23)cc1S(=O)(=O)NCCN(C)C` as the compound, how does the RP-LC retention time read?
**A.** The RP-LC retention time was 616 s.

**Q.** With `Cc1ccc(N2CCC(NC(=O)NCCc3ccccc3)C2=O)cc1C` (centres undefined) as the compound, how does the RP-LC retention time read?
**A.** Its RP-LC retention time is 790 s.

**Q.** Which RP-LC retention time does the source give for `CCc1noc(-c2cnc3nc(C)ccc3c2Nc2ccc3c(c2)OCCO3)n1` here?
**A.** The RP-LC retention time was 731 s.

**Q.** For `Cc1ccc(NC(=O)N2CCc3c(c(-c4nnc(-c5ccc(F)cc5)o4)nn3C)C2)cc1C`, which RP-LC retention time is on record?
**A.** The RP-LC retention time was 943 s.

**Q.** With `COc1ccccc1Cn1cc(C(=O)c2ccccc2)c(=O)c2cc3c(cc21)OCCO3` as the compound, how does the RP-LC retention time read?
**A.** Its RP-LC retention time is 815 s.

**Q.** Which RP-LC retention time does the source give for `CC(C)(NC(=O)C1CCCO1)c1nc2c(c(C(N)=O)n1)OCO2` (centres undefined) here?
**A.** The RP-LC retention time was 563 s.

**Q.** For `CCCCCOC(=O)Nc1nc(=O)n([C@@H]2O[C@H](C)[C@H](O)C2O)cc1F` (some centres undefined), which RP-LC retention time is on record?
**A.** Its RP-LC retention time is 682 s.

**Q.** Which RP-LC retention time does the source give for `O=C(c1nc2ccccn2c1-c1ccc(Cl)cc1)N1CCCC1` here?
**A.** Its RP-LC retention time is 712 s.

**Q.** Which RP-LC retention time does the source give for `COCc1nc(N(C)Cc2ccccc2)ncc1C(=O)O` here?
**A.** Its RP-LC retention time is 804 s.

**Q.** With `COC(=O)c1c(NC2CCCC2)c2cccc(Cl)c2[nH]c1=O` as the compound, how does the RP-LC retention time read?
**A.** Its RP-LC retention time is 830 s.

**Q.** Which RP-LC retention time does the source give for `O=C(NCc1ccncc1)c1ccc(-c2ccc(N3CCSCC3)nc2)cc1` here?
**A.** Its RP-LC retention time is 574 s.

**Q.** For `O=C(Cn1cnc2nc3c(cc2c1=O)CCCC3)NCCc1ccccc1`, which RP-LC retention time is on record?
**A.** Its RP-LC retention time is 728 s.

**Q.** Which RP-LC retention time does the source give for `CC(C)CC(=O)Nc1ccc(N2CCCC(C)C2)cc1C(=O)O` (centres undefined) here?
**A.** Its RP-LC retention time is 671 s.

**Q.** Which RP-LC retention time does the source give for `O=C(NCCc1csc(-c2cccs2)n1)C1CCN(S(=O)(=O)c2ccc(Cl)cc2)CC1` here?
**A.** The RP-LC retention time was 963 s.

**Q.** Which RP-LC retention time does the source give for `Cc1cc(C(=O)N2c3ccccc3CC2c2nnc(C(C)C)o2)nn1C` (centres undefined) here?
**A.** The RP-LC retention time was 829 s.

**Q.** For `COc1ccc(NS(=O)(=O)c2cc3n(c2)CCN(CC(C)C)C3=O)cc1Cl`, which RP-LC retention time is on record?
**A.** Its RP-LC retention time is 828 s.
